Key:
[1] = system: acetic acid-induced rat ulcer models; experiment: Effect on acetic acid-induced rat ulcer model; assay type: in vivo, rat (male Donryu:CRJ); settings: 50 mg/kg i.v.
Method: Morbid models were prepared by starving male Donryu:CRJ rats (aged 6 weeks; 9 rats per group) for 24 hours, incising each of their abdomens under etherization to ligate its colon, injecting a 10% aqueous solution (2 ml) of acetic acid into the digestive tract lumen thereof by means of a syringe equipped with a 25 G needle, further injecting air (3 ml) to discharge the acetic acid solution, and then suturing and closing the operated part. Conagenin was intravenously administered to the rats in a dose of 50 mg/kg 24 hours before the preparation of the models and right after the operation. After 24 hours, the rat models were slaughtered to take out their colons and recta. These organs were incised by 10 cm above from the anus to remove their contents. Thereafter, the weight of the organs was measured, and moreover the degree of mucosal disorder was visually observed. The degree of the tissue damage was evaluated using the grades "light", "medium" and "serious".

[2] = system: trinitrobenzenesulfonic acid (TNBS)-induced rat colitis models; experiment: Effect on trinitrobenzenesulfonic acid (TNBS)-induced rat colitis model; assay type: in vivo, rat (male Wister); settings: for Wet weight of large intestine: conagenin 50 mg/kg i.v., salazosulfapyridine 300 mg/kg p.o., daily, untreated 1.571 ± 0.161, saline 1.723 ± 0.167; for Stage of lesion: number of rats that reached a subacute stage: saline group 4 rats; for Depth of invasion of the ulcer (lamina propria mucosae and submucosal tissue): saline group medium; for Percent change in wet weight against untreated group: untreated 100, TNBS and saline 110
Method: Morbid models were prepared by starving male Wister rats (aged 6 weeks; 7 rats per group) for 48 hours, inserting a catheter by 8 cm through the anus of each of the rats under anesthesia with pentobarbital to inject a solution (0.25 ml) with 2,4,6-trinitrobenzenesulfonic acid dissolved in 50% ethanol in a proportion of 80 mg/ml, stopping the anus for about 10 minutes and then allowing it to stand.
Conagenin was intravenously administered to the rats in a dose of 50 mg/kg. Salazosulfapyridine was orally administered as a control agent in a dose of 300 mg/kg. The administration of these test agents was carried out every day from the day before the administration of 2,4,6-trinitrobenzenesulfonic acid to the fourth day after the administration. The rat models were slaughtered at the fifth day after the administration to determine a change in the wet weight of their recta (8 cm) and make a judgment on the basis of the pathological findings thereof.

[3] = Single administration (acute) toxicity test on rats; assay type: in vivo; settings: in vivo, rat
Method: (§1) Conagenin (500 mg/kg) was singly administered intravenously, intraperitoneally, subcutaneously or orally to mice and rats to investigate its toxicity.

Rat = experiment: as above; assay type: in vivo
Method: as §1

[4] = Single administration toxicity test on mice; assay type: in vivo, mouse; settings: in vivo; mouse, intravenous
Method: as §1

Mouse = experiment: Single administration toxicity test on mice; assay type: in vivo
Method: as §1

rats = experiment: 3-month repeated administration toxicity test on rats; assay type: in vivo, rat (male Wister); settings: 3 months
Method: Conagenin (100 mg/kg) was intraperitoneally administered repeatedly for 3 months to male Wister rats (aged 6 weeks; 3 rats per group) to evaluate its toxicity using a group dosed with physiological saline as a control. Tests were made for general symptoms, urinalysis, blood test, blood biochemical test, autopsy, organ weight and pathological test.
The judgment of the test items was conducted in accordance with "Guideline of Toxicity Testing Methods".

patients = settings: double blind test; cited from earlier work
[5] = 24 h before and right after operation, 9 rats per group
[6] = pathological findings of colon, 7 rats per group
[7] = 100 mg/kg i.p., compared with saline control

C[C@@H]([C@@H](C)O)[C@@H](O)C(=O)N[C@@](C)(CO)C(=O)O [Conagenin, (2S)N-[(2R,3S,4R)2,4-dihydroxy-3-methyl-pentanoyl]-2-methylserine]
Number of animals, grade of inflammation Light (1) [1, 5]: 5 | Number of animals, grade of inflammation Medium (2) [1, 5]: 3 | Number of animals, grade of inflammation Serious (3) [1, 5]: 1 | Grade of inflammation, mean ± SD ([1]; control (physiological saline) 2.38 ± 0.67): 1.50 ± 0.73 | Suppressing effect on the inflammatory ulcer compared with the control group ([1]; in words): high suppressing effect | Inflammatory change (in words) [2]: exactly the same good result | Therapeutic effect compared with salazosulfapyridine ([2]; conagenin 50 mg/kg i.v. vs salazosulfapyridine 300 mg/kg p.o.): marked therapeutic effect | Wet weight of large intestine [2]: 1.572 ± 0.099 g | Increase in wet weight of the large intestine (in words) ([2]; control (saline) 10%): No increase was observed | Depth of invasion on lamina propria mucosae: number of animals, light [2, 6]: 2 | Depth of invasion on lamina propria mucosae: number of animals, no marked change [2, 6]: 5 | Depth of invasion on submucosal tissue: number of animals, no marked change [2, 6]: 7 | Depth of invasion on tunica muscularis: number of animals, no marked change [2, 6]: 7 | Findings of ulceration: number of animals, light [2, 6]: 2 | Findings of ulceration: number of animals, no marked change [2, 6]: 5 | Inflammatory change: number of animals, light [2, 6]: 1 | Inflammatory change: number of animals, no marked change [2, 6]: 6 | Stage of lesion: number of rats that reached a subacute stage [2]: 2 rats | Depth of invasion of the ulcer (lamina propria mucosae and submucosal tissue) [2]: light | Percent change in wet weight against untreated group [2]: 100% | LD50 ([3]; ip, intraperitoneal): > 500 mg/kg | LD50 ([3]; sc, subcutaneous): > 500 mg/kg | LD50 ([3]; intravenous): > 500 mg/kg | LD50 ([3]; oral): > 500 mg/kg | LD50 ([3]; acute toxicity, rats, oral, subcutaneous, intraperitoneal and intravenous): ≥ 500 mg/kg | Abnormal finding of general symptoms (Rat; rat, in vivo, 500 mg/kg): no abnormal finding of general symptoms | Death (Rat; rats, single 500 mg/kg): No death was observed | LD50 [4]: > 500 mg/kg | Death (Mouse; mice, single 500 mg/kg): No death was observed | Abnormal finding of general symptoms (Mouse; mouse, in vivo, 500 mg/kg): no abnormal finding of general symptoms | Death (rats; 100 mg/kg i.p.): None | All items tested (general symptoms, urinalysis, blood test, blood biochemical test, autopsy, organ weight, pathological test) (rats; [7]): no significant change was observed | Blood biochemical test (rats; [7]): No marked change | General symptoms (rats; [7]): No marked change | Hematological test (rats; [7]): No marked change | Pathological test (rats; [7]): No marked change | Urinalysis (rats; [7]): No marked change | Development of toxicity (rats; efficacious dose of 100 mg/kg, rats): no development of toxicity was observed

Nc1ccc(O)c(C(=O)O)c1 [mesalazine]
Generalized amelioration rate (patients): 68.8% | Incidence rate of the side effect (patients): 11.5%

O=C(O)c1cc(/N=N/c2ccc(S(=O)(=O)Nc3ccccn3)cc2)ccc1O [salazosulfapyridine]
Wet weight of large intestine [2]: 1.641 ± 0.140 g | Increase in wet weight of the large intestine ([2]; control (saline) 10%): 4% | Depth of invasion on lamina propria mucosae: number of animals, light [2, 6]: 2 | Depth of invasion on lamina propria mucosae: number of animals, medium [2, 6]: 2 | Depth of invasion on lamina propria mucosae: number of animals, no marked change [2, 6]: 3 | Depth of invasion on submucosal tissue: number of animals, light [2, 6]: 2 | Depth of invasion on submucosal tissue: number of animals, no marked change [2, 6]: 5 | Depth of invasion on tunica muscularis: number of animals, no marked change [2, 6]: 7 | Findings of ulceration: number of animals, light [2, 6]: 2 | Findings of ulceration: number of animals, medium [2, 6]: 2 | Findings of ulceration: number of animals, no marked change [2, 6]: 3 | Inflammatory change: number of animals, light [2, 6]: 2 | Inflammatory change: number of animals, medium [2, 6]: 1 | Inflammatory change: number of animals, no marked change [2, 6]: 4 | Stage of lesion: number of rats that reached a subacute stage [2]: 4 rats | Depth of invasion of the ulcer (lamina propria mucosae and submucosal tissue) [2]: medium | Percent change in wet weight against untreated group [2]: 104% | Generalized amelioration rate (patients): 63.5% | Incidence rate of the side effect (patients): 28.1%
